These results are taken from patent US6323219A, “Methods for treating immunomediated inflammatory disorders” (Ortho-McNeil Pharmaceutical, Inc., priority 1999, dated 2001).

Entries after “also recorded” stand apart in the source; their conditions may differ. Where only a bound is given, the exact number is not on record here.

Data set [1] deals with S91 cells. Kind of data set: Pigmentation of choleratoxin-induced S91 cells. The data set is classed as cell-based, mouse. The source says: Indeed, the level of pigmentation of human primary melanocytes or choleratoxin-induced S91 cells, which is reduced by hydroquinone and benzaldehyde, was not affected by Compound I.
Data set [2] deals with MelanoDerm human epidermal equivalents. Particulars: MelanoDerm equivalents are known to respond; cited from earlier work.
Data set [3] has as its system human primary melanocytes. Briefly: Pigmentation of primary melanocyte cultures. Particulars: for level of pigmentation, human primary melanocytes: melanocytes alone. The data set is classed as cell-based.
Data set [4] is described as follows: in vivo. Also on record: species or system male rats (Long Evans). Particulars: rat, iv. As to the method:
Since the compounds of the formula (l) are also potent thrombin inhibitors (see U.S. Pat. No. 5,523,308), an ex vivo thrombin assay was conducted to determine the duration of action of the compounds of Formula I. For this i.v. assay male rats (Long Evans, 350-500 g) were implanted with a teflon cannulae via the femoral artery while under anesthesia (pentobarbital i.p., 35 mg/kg). After surgery, the animals were individually housed in standard cages, fed with rat chow (Hanlan, #8604) and continuously infused with physiological saline to maintain arterial patency, (0.5 mL/h, intra arterial) using a spring-shielded swiveling tether connected to an infusion system. The animals were allowed to recover for at least 24 h after the surgical procedure.
A sample of blood was drawn from the animals 15 min before dosing with the inhibitor (0.25 mL blood is drawn into a syringe containing 0.025 mL of Sigma sodium citrate). The test compound was dispersed in water and delivered to the animal (0.25 mL) via the femoral vein. The inhibitor was given at a concentration (mg/mL) which produced 80% inhibition of VO in a plasma sample at 5 min after infusion. Blood was drawn from the arterial line (blood:sodium citrate, 0.25/0.025 mL ) at regular intervals after dosing (5, 10, 15, 30, 60 and 120 min) and placed in a centrifuge tube. A plasma sample was obtained by centrifuging the blood at 10,000 rpm for 5 min. This sample is analyzed for thrombin inhibition using the chromogenic assay, described below.
The rate of increase in absorbance at 405 nm of synthetic peptides (50 μM Spectozyme® TH (H-D-HHT-Ala-Arg-pNA-2AcOH), American Diagnostica) is measured in the presence of plasma with a microplate reader (Molecular Devices) at 37° C. using an aqueous buffer (10 mM Tris, 10 mM Hepes, 150 mM NaCl, 0.1% PEG; pH 7.4). The buffer was added to the plasma samples (1:1) dilution prior to delivery to the microplate (1:5 and 1:50 for final plasma dilutions of 1:10 and 1:100 respectively) followed by the enzyme (1 nM human α thrombin). Datum was collected over a 30 min period and the initial rate of substrate hydrolysis (V0 (mOD/min)) was calculated with an analysis program (Softmax, Molecular Devices).
The time to half plasma elimination (t 1/2) was calculated from the slope of VO vs. time, using the following equation: […]. These datum are presented in Table L. In Table L, the compound # corresponds to the compound number described in U.S. Pat. No. 5,523,308.

Data set [5] concerns Co-cultures (no K-M contact). Kind of data set: Pigmentation of keratinocyte-melanocyte co-cultures without K-M contact. The data set is classed as cell-based, human. The settings on record: Table D; three days, DOPA stained on fourth day. The source says:
Since PAR-2 is not expressed in melanocytes, we tested the possible requirement of keratinocyte-melanocyte interactions for the depigmenting effect of Compound I. Primary melanocyte cultures were compared to identical cultures plated under epidermal equivalents (EpiDerm, lacking melanocytes) to create a co-culture with no contact between keratinocytes and melanocytes. These were also compared to MelanoDerm equivalents, where melanocytes are present in the basal layer of the equivalent. Cultures were treated for three days with Compound I, with the PAR-2 agonist SLIGRL, and with the TR agonist TFLLRNPNDK, as set forth in Table D, and DOPA stained on the fourth day. In Table D, keratinocytes are indicated by "K", melanocytes are indicated by "M" and lack of keratinocyte-melanocyte contact is indicated as "no K-M contact". […] In MelanoDerm equivalents, compound I reduced and SLIGRL induced pigmentation, while TFLLRNPNDK had no effect.

Data set [6] deals with MelanoDerm human epidermal equivalents. Briefly: Pigmentation of MelanoDerm epidermal equivalents (DOPA, H&E or F&M staining, image analysis). Format: cell-based. Particulars: for pigmentation/melanogenesis in epidermal equivalents: MelanoDerm, three days of treatment, stained on fourth day, FIG. 1B, FIG. 2, FIG. 3.
The target in data set [7] is human Lung Tryptase. Kind of data set: Tryptase IC50 Method. The data set is classed as biochemical. The settings on record: 37° C., 1.0 nM enzyme, 500 μM substrate. Here is the method: The enzyme reaction is started by the addition of enzyme ([E]: 1.0 nM human Lung Tryptase; Cortex Biochem CP3033). Data is collected over a period of 30 min. and the initial rate of substrate hydrolysis (Vo (mOD/min)) is calculated. Inhibition is calculated by comparing to wells containing no inhibitor (vehicle) and IC50 s are determined using a four parameter fit logistics model. […] The enzyme reaction is started by the addition of enzyme ([E]: 10.0 nM Human Skin Chymase; Cortex Biochem CPl 129). Data is collected over a period of 30 min. and the initial rate of substrate hydrolysis (Vo (mOD/min)) is calculated. Inhibition is calculated by comparing to wells containing no inhibitor (vehicle) and IC50 s are determined using a four parameter fit logistics model. Chymase 10 μM Screen Method: The optical density at 405 nm due to hydrolysis of synthetic chromogenic peptide substrates ([S]: 500 μM Suc-Ala-Ala-Pro-Phe-pNA; Bachem L-1400) is measured in the presence and absence of inhibitor compounds of formula (I) with a microplate reader at room temperature. The enzyme reaction is started by the addition of enzyme ([E]: 5.0 nM Human Skin Chymase; Cortex Biochem CP1129), and 3 hours following that addition data is collected. After subtracting background (no enzyme addition), inhibition is calculated by comparing to wells containing no inhibitor (vehicle).

For data set [8], the target named is T1, Human Skin Chymase (Homo sapiens, UniProt P23946).
T1 construct: purchased Cortex Biochem CP1129; host or cells: human skin
T1 sequence (P23946 22-247): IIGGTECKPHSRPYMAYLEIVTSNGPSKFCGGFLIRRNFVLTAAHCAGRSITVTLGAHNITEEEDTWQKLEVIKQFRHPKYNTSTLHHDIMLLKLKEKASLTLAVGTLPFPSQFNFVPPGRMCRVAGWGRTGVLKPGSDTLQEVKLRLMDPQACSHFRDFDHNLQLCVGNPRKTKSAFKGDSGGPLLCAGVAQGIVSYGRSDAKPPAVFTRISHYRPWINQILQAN
Briefly: Chymase 10 μM Screen Method. The data set is classed as biochemical. Particulars: 10 μM, room temperature, 5.0 nM enzyme, 3 hours; read-out: Chymase % Inhibition (10 μM). As to the method:
The enzyme reaction is started by the addition of enzyme ([E]: 1.0 nM human Lung Tryptase; Cortex Biochem CP3033). Data is collected over a period of 30 min. and the initial rate of substrate hydrolysis (Vo (mOD/min)) is calculated. Inhibition is calculated by comparing to wells containing no inhibitor (vehicle) and IC50 s are determined using a four parameter fit logistics model. […] Data is collected over a period of 30 min. and the initial rate of substrate hydrolysis (Vo (mOD/min)) is calculated. Inhibition is calculated by comparing to wells containing no inhibitor (vehicle) and IC50 s are determined using a four parameter fit logistics model. […] The enzyme reaction is started by the addition of enzyme ([E]: 5.0 nM Human Skin Chymase; Cortex Biochem CP1129), and 3 hours following that addition data is collected. After subtracting background (no enzyme addition), inhibition is calculated by comparing to wells containing no inhibitor (vehicle).

Data set [9] has as its system Yucatan swine skin. Briefly: Yucatan swine skin pigmentation, topical, visual/chromameter/histology.
From the text: Each compound was applied to two sites on the pig twice daily, five days per week for eight weeks. After eight weeks of treatment, chromameter measurements were taken.
Two sites per concentration were placed on opposite sides of the swine dorsum. Chromameter measurements were taken before treatment started and every two weeks thereafter. Pictures were taken periodically and at the end of the experiment.
Setting [10] is: Table D, three days, DOPA stained on fourth day.

For the molecule `Oc1ccc(O)cc1` [hydroquinone], the “level of pigmentation, choleratoxin-induced S91 cells” value in data set [1] is “reduced”. The “pigmentation of epidermal equivalents (known response to whitening agents)” value in [2] is listed as “reducing pigmentation”. The “level of pigmentation, human primary melanocytes” value in data set [3] is on record as “reduced”.
With `N=C(N)NCCC[C@H](NC(=O)[C@@H]1CCCN1C(=O)CC(c1ccccc1)c1ccccc1)C(=O)c1nc2ccccc2s1` [Compound 3], the half-life in data set [4] was 6 min.
For the molecule TFLLRNPNDK [reference compound], in data set [5], the “effect on pigmentation, Co-cultures (no K-M contact)” value was “no effect”. Further, the “pigmentation/melanogenesis in epidermal equivalents” value (“pigmentation/melanogenesis” for short) in data set [6] is on record as “no effect on pigmentation”. Also, the “effect on pigmentation, MelanoDerm (K-M contact)” value in data set [6] (setting [10]) was “no effect”. Further, the “effect on pigmentation, Melanocytes (no K)” value in data set [3] (setting [10]) is “no effect”.
In data set [7], `CN[C@H](Cc1ccccc1)C(=O)N1CCC[C@H]1C(=O)N[C@@H](CCCNC(=N)N)C(=O)c1nc2c(ccc3ccccc32)s1` [Compound 52] registered an IC50 of 33.7 nM. The inhibition at 10 µM in [8] was found to be 4%. In data set [4], this molecule displayed a half-life of 8 min.
Regarding `CN[C@H](Cc1ccccc1)C(=O)N1CCC[C@H]1C(=O)N[C@@H](CCCN=C(N)N)C(=O)c1nc2ccccc2o1` [Compound 5], the half-life in [4] turned out to be 18 min.
Take Hirudin: in data set [6], the “pigmentation/melanogenesis” value was “no effect on pigmentation”.
Regarding `O=Cc1ccccc1` [benzaldehyde], the “level of pigmentation, choleratoxin-induced S91 cells” value in data set [1] is recorded as “reduced”. Further, the “pigmentation of epidermal equivalents (known response to whitening agents)” value in data set [2] is given as “reducing pigmentation”. Besides, in data set [3], the “level of pigmentation, human primary melanocytes” value is recorded as “reduced”.
Turning to SFLLRN [reference compound], in data set [9] (10 μM, twice daily, five days per week, eight weeks), the “effect on skin pigmentation” value was “no significant effects”. Moreover, the “pigmentation/melanogenesis” value in data set [6] is “trend of lightening or reducing pigmentation”.
On to `CCCC[C@H](NC(=O)[C@@H]1CCCN1C(=O)[C@@H](Cc1ccccc1)NC)C(=O)c1nc2ccccc2s1` [Compound 39], for which the 50% inhibitory concentration (IC50) in [7] was more than 10000 nM. Further, the inhibition at 10 µM in data set [8] is 37%.
In the case of `CN[C@H](Cc1ccccc1)C(=O)N1CCC[C@H]1C(=O)N[C@@H](CCCNC(=N)N)C(=O)c1nccs1` [Compound 4], the half-life in [4] turned out to be 16 min.
With `CN[C@H](Cc1ccccc1)C(=O)N1CCC[C@H]1C(=O)N[C@@H](CCCNC(=N)N)C(=O)c1nc2ccc(C(=O)OC)cc2s1` [Compound 12], in data set [7], half-maximal inhibition (IC50) required 1.7 nM. Further, the inhibition at 10 µM in [8] was determined as 2%. Besides, the half-life in data set [4] stood at 43 min.
For the molecule `CN[C@H](Cc1ccccc1)C(=O)N1CCC[C@H]1C(=O)N[C@@H](CCCOC)C(=O)c1nc2ccccc2s1` [Compound 53], the inhibition at 10 µM in data set [8] amounted to 5%.
Turning to `CN[C@H](Cc1ccccc1)C(=O)N1CCC[C@H]1C(=O)N[C@@H](CCCNC(=N)N)C(=O)c1nc2ccc(F)cc2s1` [Compound 17], in [7], half-maximal inhibition (IC50) was put at 11.1 nM. The inhibition at 10 µM in data set [8] was 3%. The molecule also had a half-life in data set [4] of 8 min.
For `CN[C@H](Cc1ccccc1)C(=O)N1CCC[C@H]1C(=O)N[C@@H](CCCNC(=N)N)C(=O)c1nc2ccccc2[nH]1` [Compound 35] the same measures were 15.1 nM, 4% and 11 min.
As for `N=C(N)NCCC[C@H](NC(=O)C1CCCC1)C(=O)c1nc2ccccc2s1` [Compound 31], half-maximal inhibition in data set [7] (IC50) was put at 828 nM. Besides, the inhibition at 10 µM in data set [8] is 0%.
`CN[C@H](Cc1c(F)c(F)c(F)c(F)c1F)C(=O)N1CCC[C@H]1C(=O)N[C@@H](CCCNC(=N)N)C(=O)c1nc2ccccc2s1` [Compound 30]: in data set [7], inhibition was half-maximal at 2.7 nM (IC50). For the same molecule, the inhibition at 10 µM in data set [8] worked out at 6%. The same molecule yielded a half-life in [4] of 6 min.

B1: STI: soybean trypsin inhibitor, available from Sigma (protein, UniProt P01070 25-205, looked up)
Trypsin inhibitor A: DFVLDNEGNPLENGGTYYILSDITAFGGIRAAPTGNERCPLTVVQSRNELDKGIGTIISSPYRIRFIAEGHPLSLKFDSFAVIMLCVGIPTEWSVVEDLPEGPAVKIGENKDAMDGWFRLERVSDDEFNNYKLVFCPQQAEDDKCGDIGISIDHDDGTRRLVVSKNKPLVVQFQKLDKESL
In the case of B1, the “visual lightness of treated sites versus surrounding skin” value in data set [9] (twice a day, five days a week, at seven weeks) is reported as “visually lighter than the surrounding skin”. Besides, the “pigmentation/melanogenesis” value in data set [6] is “very effective in inhibiting melanogenesis; also recorded: reduces pigmentation”.

B2: Trypsin: Activates TR and PAR-2 (protein, UniProt P00760 24-246, looked up)
Serine protease 1: IVGGYTCGANTVPYQVSLNSGYHFCGGSLINSQWVVSAAHCYKSGIQVRLGEDNINVVEGNEQFISASKSIVHPSYNSNTLNNDIMLIKLKSAASLNSRVASISLPTSCASAGTQCLISGWGNTKSSGTSYPDVLKCLKAPILSDSSCKSAYPGQITSNMFCAGYLEGGKDSCQGDSGGPVVCSGKLQGIVSWGSGCAQKNKPGVYTKVCNYVSWIKQTIASN
On to B2, for which the “pigmentation, dose-response” value in data set [6] (increasing concentrations, SLIGRL 0, 10 and 50 μM, Compound I 0.1 μM to 1 μM, FIG. 4A) is given as “has the same effect”.
